According to article PMC9340768 (Journal of Medicinal Chemistry, 2022):
Blank lines part the entries; values can stand above or below the molecule they belong to. Starred links: 1 amine or outer side, 2 acyl side, 3 side chain; linkers in the order of their positions; H or OH if unused. Positions of bridges follow the written chain, without caps; N, C: chain ends. Non-standard residues stand in square brackets, D forms with d. Residues, ends and D or L forms follow the SMILES beside them. Chains are numbered I, II in the order given. TATA = O=C(CC[*:1])N1CN(C(=O)CC[*:2])CN(C(=O)CC[*:3])C1; X1 = O=C(CCc1cn(CCOCCOCCOCCOCCOCCC(=O)[*:2])nn1)[*:1]; 1Nal = N[C@@H](Cc1cccc2ccccc12)C(=O)O; Hyp = O=C(O)[C@@H]1C[C@@H](O)CN1; hArg = N=C(N)NCCCC[C@H](N)C(=O)O; tBuAla = CC(C)(C)C[C@H](N)C(=O)O; Nle = CCCC[C@H](N)C(=O)O

Biological target: CD137 (Homo sapiens, UniProt Q07011+Q96NY8)
Test: HT1376/CD137 reporter coculture assay
Assay type: cell-based

Chain of CD137 (Q07011 24-255): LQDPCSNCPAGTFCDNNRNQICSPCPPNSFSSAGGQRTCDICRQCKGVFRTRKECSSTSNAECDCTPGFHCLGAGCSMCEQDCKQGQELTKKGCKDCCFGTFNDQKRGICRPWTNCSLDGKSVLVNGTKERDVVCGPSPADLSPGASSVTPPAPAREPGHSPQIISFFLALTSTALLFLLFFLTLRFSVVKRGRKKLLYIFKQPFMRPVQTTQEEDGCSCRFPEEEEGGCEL
Chain of CD137 (Q96NY8 32-510): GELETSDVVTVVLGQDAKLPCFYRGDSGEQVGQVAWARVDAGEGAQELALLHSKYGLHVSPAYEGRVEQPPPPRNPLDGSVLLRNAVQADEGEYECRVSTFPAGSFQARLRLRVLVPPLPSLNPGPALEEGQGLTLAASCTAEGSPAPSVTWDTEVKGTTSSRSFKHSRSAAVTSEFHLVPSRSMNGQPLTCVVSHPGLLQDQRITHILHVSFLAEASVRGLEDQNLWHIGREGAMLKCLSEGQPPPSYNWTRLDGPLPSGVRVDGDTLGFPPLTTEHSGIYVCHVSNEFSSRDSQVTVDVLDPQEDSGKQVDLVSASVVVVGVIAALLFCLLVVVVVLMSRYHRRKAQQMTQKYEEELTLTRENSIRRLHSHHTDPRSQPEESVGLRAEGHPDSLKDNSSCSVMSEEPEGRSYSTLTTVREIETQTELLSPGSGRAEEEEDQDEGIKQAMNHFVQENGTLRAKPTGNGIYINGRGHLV

EC50 relative to similar compounds (vs dLys4 (BCY10572) or C-terminal Dap (BCY10573) attachment): two- to threefold weaker
SMILES: CCCC[C@@H]1NC(=O)[C@H](Cc2ccc(O)cc2)NC(=O)[C@@H]2CCCN2C(=O)[C@H](CC(=O)O)NC(=O)[C@H](C)NC(=O)[C@H](Cc2ccccc2)NC(=O)[C@@H]2CSCCC(=O)N3CN(CN(C3)C(=O)CCSC[C@@H](C(=O)N[C@@H](C)C(N)=O)NC1=O)C(=O)CCSC[C@H](NC(C)=O)C(=O)N[C@@H](CC(C)(C)C)C(=O)N1CCC[C@H]1C(=O)N[C@@H](CCCCNC(=O)CCc1cn(CCOCCOCCOCCOCCOCCC(=O)N[C@H]3CSCCC(=O)N4CN5CN(C4)C(=O)CCSC[C@H](NC(=O)[C@@H](CC(=O)O)NC(=O)[C@H](Cc4cccc6ccccc46)NC(=O)[C@@H]4CCCN4C3=O)C(=O)N[C@@H](CCSC)C(=O)N[C@@H](CCCCNC(=N)N)C(=O)N[C@@H](CC(=O)O)C(=O)N[C@@H](Cc3c[nH]c4ccccc34)C(=O)N[C@@H](CO)C(=O)N[C@@H]([C@@H](C)O)C(=O)N3CCC[C@H]3C(=O)N3C[C@H](O)C[C@H]3C(=O)N[C@@H](Cc3c[nH]c4ccccc34)C(=O)N[C@H](C(N)=O)CSCCC5=O)nn1)C(=O)N[C@H](C)C(=O)N1CCC[C@H]1C(=O)N[C@@H](Cc1ccc(O)cc1)C(=O)N2 [BCY10571]

improvement of EC50 (CD137 affinity improved from BCY9399 to BCY11375): 3.6 fold
SMILES: CCCC[C@@H]1NC(=O)[C@H](Cc2ccc(O)cc2)NC(=O)[C@@H]2CCCN2C(=O)[C@H](CC(=O)O)NC(=O)[C@H](C)NC(=O)[C@H](Cc2ccccc2)NC(=O)[C@@H]2CSCCC(=O)N3CN(CN(C3)C(=O)CCSC[C@@H](C(=O)N[C@@H](CNC(=O)CCc3cn(CC(=O)N[C@H]4CSCCC(=O)N5CN6CN(C5)C(=O)CCSC[C@H](NC(=O)[C@@H](CC(=O)O)NC(=O)[C@H](Cc5cccc7ccccc57)NC(=O)[C@@H]5CCCN5C4=O)C(=O)N[C@@H](CCSC)C(=O)N[C@@H](CCCCNC(=N)N)C(=O)N[C@@H](CC(=O)O)C(=O)N[C@@H](Cc4c[nH]c5ccccc45)C(=O)N[C@@H](CO)C(=O)N[C@@H]([C@@H](C)O)C(=O)N4CCC[C@H]4C(=O)N4C[C@H](O)C[C@H]4C(=O)N[C@@H](Cc4c[nH]c5ccccc45)C(=O)N[C@H](C(N)=O)CSCCC6=O)nn3)C(N)=O)NC1=O)C(=O)CCSC[C@H](NC(C)=O)C(=O)N[C@@H](CC(C)(C)C)C(=O)N1CCC[C@H]1C(=O)N[C@@H](CCC(=O)O)C(=O)N[C@H](C)C(=O)N1CCC[C@H]1C(=O)N[C@@H](Cc1ccc(O)cc1)C(=O)N2 [BCY11375]

improvement of EC50 (Nectin-4 affinity improved from BCY11858 to BCY12579): 12 fold
SMILES: CCCC[C@@H]1NC(=O)[C@H](Cc2ccc(O)cc2)NC(=O)[C@@H]2CCCN2C(=O)[C@H](CC(=O)O)NC(=O)[C@H](C)NC(=O)[C@H](Cc2ccccc2)NC(=O)[C@@H]2CSCCC(=O)N3CN(CN(C3)C(=O)CCSC[C@@H](C(=O)N[C@@H](C)C(N)=O)NC1=O)C(=O)CCSC[C@H](NC(C)=O)C(=O)N[C@@H](CC(C)(C)C)C(=O)N1CCC[C@H]1C(=O)N[C@@H](CCC(=O)O)C(=O)N[C@H](CCCCNC(=O)CCc1cn(CCOCCOCCOCCOCCOCCC(=O)NCCCC[C@H]3NC(=O)[C@H](Cc4cccc5ccccc45)NC(=O)[C@@H]4CCCN4C(=O)[C@@H](NC(C)=O)CSCCC(=O)N4CN5CN(C4)C(=O)CCSC[C@H](NC3=O)C(=O)N[C@@H](CCSC)C(=O)N[C@@H](CCCCNC(=N)N)C(=O)N[C@@H](Cc3c[nH]cn3)C(=O)N[C@@H](Cc3c[nH]c4ccccc34)C(=O)N[C@@H](CO)C(=O)N[C@@H]([C@@H](C)O)C(=O)N3CCC[C@H]3C(=O)N3C[C@H](O)C[C@H]3C(=O)N[C@@H](Cc3c[nH]c4ccccc34)C(=O)N[C@H](C(N)=O)CSCCC5=O)nn1)C(=O)N1CCC[C@H]1C(=O)N[C@@H](Cc1ccc(O)cc1)C(=O)N2 [BCY12579] (I: Ac-C[tBuAla]PE[dK]PYCFADPY[Nle]CA-NH2 / II: Ac-CP[1Nal][dK]CM[hArg]HWSTP[Hyp]WC-NH2; linker I:1-I:8-I:15, II:1-II:5-II:15 via TATA; linker I:5-II:4 via X1)

fold more potent than the 1:2 format (2:2 molecule vs 1:2 format): 2.9 fold
SMILES: CCCC[C@@H]1NC(=O)[C@H](Cc2ccc(O)cc2)NC(=O)[C@@H]2CCCN2C(=O)[C@H](CC(=O)O)NC(=O)[C@H](C)NC(=O)[C@H](Cc2ccccc2)NC(=O)[C@@H]2CSCCC(=O)N3CN(CN(C3)C(=O)CCSC[C@@H](C(=O)N[C@@H](C)C(N)=O)NC1=O)C(=O)CCSC[C@H](NC(C)=O)C(=O)N[C@@H](CC(C)(C)C)C(=O)N1CCC[C@H]1C(=O)N[C@@H](CCC(=O)O)C(=O)N[C@H](CCCCNC(=O)CCc1cn(CCOCCOCCOCCN(CCOCCOCCOCCn3cc(CCC(=O)NCCCC[C@H]4NC(=O)[C@H](CCC(=O)O)NC(=O)[C@@H]5CCCN5C(=O)[C@H](CC(C)(C)C)NC(=O)[C@@H](NC(C)=O)CSCCC(=O)N5CN6CN(C5)C(=O)CCSC[C@H](NC(=O)[C@H](Cc5ccc(O)cc5)NC(=O)[C@@H]5CCCN5C4=O)C(=O)N[C@@H](Cc4ccccc4)C(=O)N[C@@H](C)C(=O)N[C@@H](CC(=O)O)C(=O)N4CCC[C@H]4C(=O)N[C@@H](Cc4ccc(O)cc4)C(=O)N[C@@H](CCCC)C(=O)N[C@H](C(=O)N[C@@H](C)C(N)=O)CSCCC6=O)nn3)CCOCCOCCOCC(=O)NCCCNC(=O)Cn3cc(CCC(=O)NCCCNC(=O)COCCOCCOCCN(CCOCCOCCOCCn4cc(CCC(=O)NCCC(=O)N[C@H]5CSCCC(=O)N6CN7CN(C6)C(=O)CCSC[C@H](NC(=O)[C@@H](CC(=O)O)NC(=O)[C@H](Cc6cccc8ccccc68)NC(=O)[C@@H]6CCCN6C5=O)C(=O)N[C@@H](CCSC)C(=O)N[C@@H](CCCCNC(=N)N)C(=O)N[C@@H](CC(=O)O)C(=O)N[C@@H](Cc5c[nH]c6ccccc56)C(=O)N[C@@H](CO)C(=O)N[C@@H]([C@@H](C)O)C(=O)N5CCC[C@H]5C(=O)N5C[C@H](O)C[C@H]5C(=O)N[C@@H](Cc5c[nH]c6ccccc56)C(=O)N[C@H](C(N)=O)CSCCC7=O)nn4)CCOCCOCCOCCn4cc(CCC(=O)NCCC(=O)N[C@H]5CSCCC(=O)N6CN7CN(C6)C(=O)CCSC[C@H](NC(=O)[C@@H](CC(=O)O)NC(=O)[C@H](Cc6cccc8ccccc68)NC(=O)[C@@H]6CCCN6C5=O)C(=O)N[C@@H](CCSC)C(=O)N[C@@H](CCCCNC(=N)N)C(=O)N[C@@H](CC(=O)O)C(=O)N[C@@H](Cc5c[nH]c6ccccc56)C(=O)N[C@@H](CO)C(=O)N[C@@H]([C@@H](C)O)C(=O)N5CCC[C@H]5C(=O)N5C[C@H](O)C[C@H]5C(=O)N[C@@H](Cc5c[nH]c6ccccc56)C(=O)N[C@H](C(N)=O)CSCCC7=O)nn4)nn3)nn1)C(=O)N1CCC[C@H]1C(=O)N[C@@H](Cc1ccc(O)cc1)C(=O)N2 [BCY12970]
